Data as given in patent US8334316B2, “Substituted organosulfur compounds and methods of using thereof” (ACEA Biosciences, Inc., priority 2004, dated 2012).
Where two headings read alike, the source gives them in different places.

Test: Acute toxicity, single intravenous injection, LD50 (Bliss method) in Kunming mice
Assay type: in vivo
Conditions: for Dead animals on day 8 after the single intravenous injection / Dead animals on day 9 after the single intravenous injection / Dead animals on days 10-14 after the single intravenous injection / Percentage of dead animals / Dead animals on day 1 after the single intravenous injection / Dead animals on day 2 after the single intravenous injection / Dead animals on day 3 after the single intravenous injection / Dead animals on day 4 after the single intravenous injection / Dead animals on day 5 after the single intravenous injection / Dead animals on day 6 after the single intravenous injection / Dead animals on day 7 after the single intravenous injection: 10 animals; for LD50 at 2 weeks: Kunming, mouse, in vivo, iv
Procedure: To evaluate the in vivo acute, intravenous toxicity of DBTS and ACEA100108 (a derivative of DBTS, see Table 33), the experiments were performed in non-tumor bearing, normal Kunming mice by monitoring the acute response of mice to a single dose of DBTS or ACEA100108 via intravenous injection (i.v.). The number of death for the treated mice was monitored and recorded. LD50 values for these compounds were calculated. Details of the study are provided below.
The experiments to test DBTS and ACEA100108 acute toxicity were performed in mice. The test mice were randomly divided into six groups (five dosing groups and one control group). Each group contained 20 Kunming strain mice, and among them, 50% were male and 50% were female. After administration of a single dose of DBTS or ACEA100108 via intravenous injection (i.v.), the acute response to DBTS or ACEA100108 compound, and the death of the treated mice during the first two weeks were monitored and recorded. The LD50 value was calculated using the Bliss method.
Materials and Method. The test chemical compound were DBTS and ACEA100108, which were dissolved into hydrogenated castor oil in the pre-warmed water bath and made as a 20 mg/ml solution. The solution was further diluted to desired experiment concentrations with the normal saline. The administration volume was 0.5 ml i.v. per mouse and the injection speed was 0.5 ml/0.5 min.
The experimental mice were Kunming strain, provided by the Experimental Animal Department, Shanghai Pharmaceutical Industry Institute. The certificate number of the facility was Animal Facility Certification Number 107. The average weight of the mice was 18-20 gram. Each test group contained 20 Kunming strain mice, and among them, 10 mice were male and 10 mice were female. […] The mice in the control group were only given the same volume of the solvent, which were diluted hydrogenated castor oil. All the testing mice were given a single intravenous injection of DBTS, ACEA100108, or the solvent that served as the control at the injection speed of 0.5 ml/0.5 min. The acute response to DBTS, ACEA100108 or the solvent immediately after the administration, as well as weight change, and the death within the first two weeks of the administration were monitored and recorded. The intravenous injection LD50 values in mice were calculated using the Bliss method.

SMILES: Fc1ccc(CSSSCc2ccc(F)cc2)cc1 [ACEA100108, Di(p-fluorobenzyl)trisulfide]
- Dead animals on day 8 after the single intravenous injection (Female, 320 mg/kg): 0
- Dead animals on day 9 after the single intravenous injection (Female, 320 mg/kg): 0
- Dead animals on days 10-14 after the single intravenous injection (Female, 320 mg/kg): 0 - - - 0
- Percentage of dead animals (Female, 320 mg/kg): 50%
- Average animal weight, End (Female, 320 mg/kg, Beginning 19.9): 24.6
- Dead animals on day 1 after the single intravenous injection (Female, 400 mg/kg): 5
- Dead animals on day 2 after the single intravenous injection (Female, 400 mg/kg): 2
- Dead animals on day 3 after the single intravenous injection (Female, 400 mg/kg): 0
- Dead animals on day 4 after the single intravenous injection (Female, 400 mg/kg): 1
- Dead animals on day 5 after the single intravenous injection (Female, 400 mg/kg): 0
- Dead animals on day 6 after the single intravenous injection (Female, 400 mg/kg): 0
- Dead animals on day 7 after the single intravenous injection (Female, 400 mg/kg): 0
- Dead animals on day 8 after the single intravenous injection (Female, 400 mg/kg): 0
- Dead animals on day 9 after the single intravenous injection (Female, 400 mg/kg): 0
- Dead animals on days 10-14 after the single intravenous injection (Female, 400 mg/kg): 0 - - - 0
- Percentage of dead animals (Female, 400 mg/kg): 80%
- Average animal weight, End (Female, 400 mg/kg, Beginning 19.9): 23.5
- Dead animals on day 1 after the single intravenous injection (Female, 500 mg/kg): 10
- Dead animals on day 2 after the single intravenous injection (Female, 500 mg/kg): 0
- Dead animals on day 3 after the single intravenous injection (Female, 500 mg/kg): 0
- Dead animals on day 4 after the single intravenous injection (Female, 500 mg/kg): 0
- Dead animals on day 5 after the single intravenous injection (Female, 500 mg/kg): 0
- Dead animals on day 6 after the single intravenous injection (Female, 500 mg/kg): 0
- Dead animals on day 7 after the single intravenous injection (Female, 500 mg/kg): 0
- Dead animals on day 8 after the single intravenous injection (Female, 500 mg/kg): 0
- Dead animals on day 9 after the single intravenous injection (Female, 500 mg/kg): 0
- Dead animals on days 10-14 after the single intravenous injection (Female, 500 mg/kg): 0 - - - 0
- Percentage of dead animals (Female, 500 mg/kg): 100%
- Dead animals on day 1 after the single intravenous injection (Male, 163.8 mg/kg): 0
- Dead animals on day 2 after the single intravenous injection (Male, 163.8 mg/kg): 0
- Dead animals on day 3 after the single intravenous injection (Male, 163.8 mg/kg): 0
- Dead animals on day 4 after the single intravenous injection (Male, 163.8 mg/kg): 0
- Dead animals on day 5 after the single intravenous injection (Male, 163.8 mg/kg): 0
- Dead animals on day 6 after the single intravenous injection (Male, 163.8 mg/kg): 0
- Dead animals on day 7 after the single intravenous injection (Male, 163.8 mg/kg): 0
- Dead animals on day 8 after the single intravenous injection (Male, 163.8 mg/kg): 0
- Dead animals on day 9 after the single intravenous injection (Male, 163.8 mg/kg): 0
- Dead animals on days 10-14 after the single intravenous injection (Male, 163.8 mg/kg): 0 - - - 0
- Percentage of dead animals (Male, 163.8 mg/kg): 0%
- Average animal weight, End (Male, 163.8 mg/kg, Beginning 20.4): 27.0
- Dead animals on day 1 after the single intravenous injection (Male, 204.8 mg/kg): 0
- Dead animals on day 2 after the single intravenous injection (Male, 204.8 mg/kg): 0
- Dead animals on day 3 after the single intravenous injection (Male, 204.8 mg/kg): 1
- Dead animals on day 4 after the single intravenous injection (Male, 204.8 mg/kg): 0
- Dead animals on day 5 after the single intravenous injection (Male, 204.8 mg/kg): 0
- Dead animals on day 6 after the single intravenous injection (Male, 204.8 mg/kg): 0
- Dead animals on day 7 after the single intravenous injection (Male, 204.8 mg/kg): 0
- Dead animals on day 8 after the single intravenous injection (Male, 204.8 mg/kg): 0
- Dead animals on day 9 after the single intravenous injection (Male, 204.8 mg/kg): 0
- Dead animals on days 10-14 after the single intravenous injection (Male, 204.8 mg/kg): 0 - - - 0
- Percentage of dead animals (Male, 204.8 mg/kg): 10%
- Average animal weight, End (Male, 204.8 mg/kg, Beginning 20.3): 26.3
- Dead animals on day 1 after the single intravenous injection (Male, 256 mg/kg): 0
- Dead animals on day 2 after the single intravenous injection (Male, 256 mg/kg): 2
- Dead animals on day 3 after the single intravenous injection (Male, 256 mg/kg): 0
- Dead animals on day 4 after the single intravenous injection (Male, 256 mg/kg): 1
- Dead animals on day 5 after the single intravenous injection (Male, 256 mg/kg): 0
- Dead animals on day 6 after the single intravenous injection (Male, 256 mg/kg): 0
- Dead animals on day 7 after the single intravenous injection (Male, 256 mg/kg): 0
- Dead animals on day 8 after the single intravenous injection (Male, 256 mg/kg): 0
- Dead animals on day 9 after the single intravenous injection (Male, 256 mg/kg): 0
- Dead animals on days 10-14 after the single intravenous injection (Male, 256 mg/kg): 0 - - - 0
- Percentage of dead animals (Male, 256 mg/kg): 30%
- Average animal weight, End (Male, 256 mg/kg, Beginning 20.2): 26.3
- Dead animals on day 1 after the single intravenous injection (Male, 320 mg/kg): 0
- Dead animals on day 2 after the single intravenous injection (Male, 320 mg/kg): 3
- Dead animals on day 3 after the single intravenous injection (Male, 320 mg/kg): 1
- Dead animals on day 4 after the single intravenous injection (Male, 320 mg/kg): 0
- Dead animals on day 5 after the single intravenous injection (Male, 320 mg/kg): 0
- Dead animals on day 6 after the single intravenous injection (Male, 320 mg/kg): 0
- Dead animals on day 7 after the single intravenous injection (Male, 320 mg/kg): 0
- Dead animals on day 8 after the single intravenous injection (Male, 320 mg/kg): 0
- Dead animals on day 9 after the single intravenous injection (Male, 320 mg/kg): 0
- Dead animals on days 10-14 after the single intravenous injection (Male, 320 mg/kg): 0 - - - 0
- Percentage of dead animals (Male, 320 mg/kg): 40%
- Average animal weight, End (Male, 320 mg/kg, Beginning 20.0): 26.7
- Dead animals on day 1 after the single intravenous injection (Male, 400 mg/kg): 3
- Dead animals on day 2 after the single intravenous injection (Male, 400 mg/kg): 3
- Dead animals on day 3 after the single intravenous injection (Male, 400 mg/kg): 0
- Dead animals on day 4 after the single intravenous injection (Male, 400 mg/kg): 1
- Dead animals on day 5 after the single intravenous injection (Male, 400 mg/kg): 0
- Dead animals on day 6 after the single intravenous injection (Male, 400 mg/kg): 0
- Dead animals on day 7 after the single intravenous injection (Male, 400 mg/kg): 0
- Dead animals on day 8 after the single intravenous injection (Male, 400 mg/kg): 0
- Dead animals on day 9 after the single intravenous injection (Male, 400 mg/kg): 0
- Dead animals on days 10-14 after the single intravenous injection (Male, 400 mg/kg): 0 - - - 0
- Percentage of dead animals (Male, 400 mg/kg): 70%
- Average animal weight, End (Male, 400 mg/kg, Beginning 19.9): 26.0
- Dead animals on day 1 after the single intravenous injection (Male, 500 mg/kg): 10
- Dead animals on day 2 after the single intravenous injection (Male, 500 mg/kg): 0
- Dead animals on day 3 after the single intravenous injection (Male, 500 mg/kg): 0
- Dead animals on day 4 after the single intravenous injection (Male, 500 mg/kg): 0
- Dead animals on day 5 after the single intravenous injection (Male, 500 mg/kg): 0
- Dead animals on day 6 after the single intravenous injection (Male, 500 mg/kg): 0
- Dead animals on day 7 after the single intravenous injection (Male, 500 mg/kg): 0
- Dead animals on day 8 after the single intravenous injection (Male, 500 mg/kg): 0
- Dead animals on day 9 after the single intravenous injection (Male, 500 mg/kg): 0
- Dead animals on days 10-14 after the single intravenous injection (Male, 500 mg/kg): 0 - - - 0
- Percentage of dead animals (Male, 500 mg/kg): 100%
- LD50 at 2 weeks (both sexes, 50% male, 50% female Kunming mice, single intravenous injection, confidence limits, read-out: LD50 (95% CL)): 284 to 351 mg/kg
- LD50 at 2 weeks (both sexes, 50% male, 50% female Kunming mice, single intravenous injection, read-out: LD50): 316 mg/kg
- LD50 at 2 weeks (both sexes, Kunming mice, 50% male 50% female, Bliss method, read-out: mouse single i.v. dose LD50, interval in parentheses): 284 to 351 mg/kg
- LD50 at 2 weeks (both sexes, Kunming mice, 50% male 50% female, Bliss method, read-out: mouse single i.v. dose LD50 value): 316 mg/kg
- LD50 at 2 weeks (female, Female Kunming mice, single intravenous injection, confidence limits, read-out: LD50 (95% CL)): 273 to 360 mg/kg
- LD50 at 2 weeks (female, Female Kunming mice, single intravenous injection, read-out: LD50): 313 mg/kg
- LD50 at 2 weeks (male, Male Kunming mice, single intravenous injection, confidence limits, read-out: LD50 (95% CL)): 272 to 375 mg/kg
- LD50 at 2 weeks (male, Male Kunming mice, single intravenous injection, read-out: LD50): 319 mg/kg
